Assay results: PMC3315146 (The Journal of General Physiology, 2012)
Where a chain is given by its changes, count along the chain named.

Key:
[1] = system: KcsA Y82C; settings: reverse direction unchanged, ref Heginbotham et al., 1999; cited from earlier work
[2] = target: T1, Kcv L70C (Paramecium bursaria Chlorella virus 1, UniProt Q84568, L70C); assay: MTSET cysteine modification, single-channel conductance of L70C; format: biochemical, chlorella virus PBCV-1; settings: for conductance reduced by: L70C, 0.2 mM cis MTSET for 5 min
T1 sequence (Q84568 1-94 L70C): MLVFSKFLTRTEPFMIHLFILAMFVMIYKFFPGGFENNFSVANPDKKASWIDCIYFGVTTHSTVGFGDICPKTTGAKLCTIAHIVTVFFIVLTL

[3] = target: T2, wt-Kcv (Paramecium bursaria Chlorella virus 1, UniProt Q84568); assay: MTSET control, single-channel conductance of wt-Kcv; format: biochemical, chlorella virus PBCV-1; settings: 0.2 mM cis MTSET
T2 sequence (Q84568 1-94): T1 sequence (Q84568 1-94 L70C) with C70L

SMILES: C[N+](C)(C)CCSS(C)(=O)=O [MTSET, (2-(trimethylammonium)ethyl) methanethiosulfonate]
- reduction of cis to trans current [1]: 60%
- conductance reduced by ([2]; 60 mV): 30%
- conductance reduced by ([2]; −60 mV): 78%
- effect on conductance ([2]; MTSET added in the trans solution (not depicted)): not found to reduce the conductance
- conductance change [3]: did not observe the conductance change
